Holding throughout (type): cell-based
Assay [1] relates to Streptococcus pneumoniae (ATCC 6301). Put plainly: Anti-microbial test, MIC by broth dilution method, Streptococcus pneumoniae. The settings on record: for MIC: Streptococcus pneumoniae, read-out: MIC SP. Here is the method:
(§1) Streptococcus pneumoniae (ATCC 6301) and Streptococcus pneumoniae (Erythromycin and Ampicillin Res. Clin. Isol.), In Vitro Bacteria
(§2) Minimum inhibitory concentration (MIC) of sample on Streptococcus pneumoniae and Streptococcus pneumoniae (Erythromycin and Ampicillin Res. Clin. Isol.) was determined by the broth dilution method [Edwards J. R. et al. In vitro antibacterial activity of SM-7338, a carbapenem antibiotic with stability to dehydropeptidase I. Antimicrobial Agents Chemotherapy. 33: pp. 215-222, 1989.]. The test substance was dissolved (generally 100% DMSO) and serially diluted in solvent to desired stock concentrations. For each concentration tested, a 0.01 ml aliquot (1% DMSO final concentration) was added to a 48-well plate after which 0.99 ml of Tryptic Soy Broth (DIFCO, U.S.A.) containing 7% fetal bovine serum with 1-5×10^5 CFU/ml of Streptococcus pneumoniae (ATCC 6301) or Streptococcus pneumoniae (Erythromycin and Ampicillin Res. Clin. Isol.) was added. Thus, final maximal concentration of DMSO was 1% and the initial test substance concentration was 100 μg/ml or 30 μM. The plates were incubated at 37° C. for 20 hours and then visually examined and scored positive (+) for inhibition of growth or turbidity or negative (−) for no effect upon growth or turbidity. Vehicle-control and active reference agents were used as blank and positive controls, respectively. Each concentration was evaluated in duplicate.

In assay [2] the test system is Streptococcus pneumoniae (Erythromycin and Ampicillin Res. Clin. Isol.). Briefly: Anti-microbial test, MIC by broth dilution method, resistant Streptococcus pneumoniae. The settings on record: for MIC: Streptococcus pneumoniae, read-out: MIC SP (EM & AM Res.). Here is the method:
as §1, §2

Assay [3] relates to Staphylococcus aureus (Smith). Put plainly: Anti-microbial test, MIC by broth dilution method, Staphylococcus aureus (Smith). The settings on record: for MIC: Staphylococcus aureus, read-out: MIC SA (Smith). Here is the method:
(§3) Staphylococcus aureus (Smith), and Staphylococcus aureus, Methicillin Resistant (ATCC 33591), In Vitro Bacteria
(§4) Minimum inhibitory concentration (MIC) of sample on Staphylococcus aureus (Smith) and Staphylococcus aureus, Methicillin Resistant (ATCC 33591) was determined by the broth dilution method [Edwards J. R. et al. In vitro antibacterial activity of SM-7338, a carbapenem antibiotic with stability to dehydropeptidase I. Antimicrobial Agents Chemotherapy. 33: pp. 215-222, 1989]. The test substance was dissolved (generally 100% DMSO) and serially diluted in solvent to desired stock concentrations. For each concentration tested, a 0.01 ml aliquot (1% DMSO final concentration) was added to a 48-well plate after which 0.99 ml of Mueller-Hinton Broth (DIFCO, USA.) with 1-5×10^5 CFU/ml of Staphylococcus aureus (Smith) or Staphylococcus aureus, Methicillin Resistant (ATCC 33591) was added. Thus, final maximal concentration of DMSO was 1% and the initial test substance concentration was 100 μg/ml or 30 μM. The plates were incubated at 37° C. for 20 hours and then visually examined and scored positive (+) for inhibition of growth or turbidity or negative (−) for no effect upon growth or turbidity. Vehicle-control and active reference agents were used as blank and positive controls, respectively. Each concentration was evaluated in duplicate.
(Broth dilution looks for growth in wells or tubes with falling amounts of substance.)

The test system of assay [4] is Staphylococcus aureus, Methicillin Resistant (ATCC 33591). Briefly: Anti-microbial test, MIC by broth dilution method, methicillin resistant Staphylococcus aureus. The settings on record: for MIC: Staphylococcus aureus, ATCC 33591 / MRSA, read-out: MIC MRSA. Here is the method: as §3, §4
Setting [5] is: ATCC6301, Tryptic Soy Broth with 7% fetal bovine serum, 37° C., 20 hours, 1% DMSO.
The mark [6] stands for this setting: clinical isolates, Tryptic Soy Broth with 7% fetal bovine serum, 37° C., 20 hours, 1% DMSO.
[7] abbreviates: Mueller-Hinton Broth, 37° C., 20 hours, 1% DMSO, visual growth/turbidity.

Converted amounts (≈) assume the structure as drawn. Like-named read-outs stand apart in the source and are kept apart here.

Take `CC1(C)S[C@@H]2[C@H](NC(=O)[C@H](N)c3ccccc3)C(=O)N2[C@H]1C(=O)O` [Ampicillin, reference compound]: the MIC – broadly, the lowest concentration that inhibits growth of the organism – in assay [1] (setting [5]) is 0.01 µg/mL (≈ 0.0286 µM); in assay [2] (setting [6]), 3 µg/mL (≈ 8.59 µM); in assay [3] (setting [7]) it was 0.1 µg/mL (≈ 0.286 µM); in assay [4] (setting [7]), 30 µg/mL (≈ 85.9 µM).

For `CC1=CC(c2c(O)cc(-c3cc4ccc(O)cc4o3)cc2O)C(C(=O)c2ccc(O)cc2O)[C@H](c2ccc(O)cc2O)C1` (stereo partly drawn) [P2-1], the MIC in assay [1] (ATCC6301, 20 h) was 100 µg/mL (≈ 172 µM); in assay [2] (20 h) it was 30 µg/mL (≈ 51.7 µM); in assay [3] (20 h), 3 µg/mL (≈ 5.17 µM); in assay [4] (20 h), over 100 µg/mL.

As for `CC(C)=CCc1c(-c2ccc(O)cc2O)oc2c(C3C=C(C)C[C@@H](c4ccc(O)cc4O)C3C(=O)c3ccc(O)cc3O)c(O)cc(O)c2c1=O` (stereo partly drawn) [P2-2], the MIC in assay [1] (ATCC6301, 20 h) is 30 µg/mL (≈ 43.3 µM); in assay [2] (setting [6]), 30 µg/mL (≈ 43.3 µM); in assay [3] (20 h) it was 3 µg/mL (≈ 4.33 µM); in assay [4] (20 h), over 100 µg/mL.

Consider `CC(C)=CCCC1=CC(c2c(O)cc3c(c2O)C(=O)CC(c2ccc(O)cc2O)O3)C(C(=O)c2ccc(O)cc2O)C(c2ccc(O)cc2O)C1` (stereo not drawn) [P3-1], for which the MIC in assay [1] (setting [5]) turned out to be 30 µg/mL (≈ 43.2 µM); in assay [2] (setting [6]), 10 µg/mL (≈ 14.4 µM); in assay [3] (setting [7]), 1 µg/mL (≈ 1.44 µM); in assay [4] (setting [7]), 3 µg/mL (≈ 4.32 µM).

For the compound `CC(C)=CCc1c(O)ccc(C(=O)C2C(c3c(O)cc(O)c4c(=O)c(CC=C(C)C)c(-c5ccc(O)cc5O)oc34)C=C(C)CC2c2ccc(O)cc2O)c1O` (stereo not drawn) [P3-2, 8-[6-[2,4-dihydroxy-3-(3-methyl-but-2-enyl)-benzoyl]-5-(2,4-dihydroxy-phenyl)-3-methyl-cyclohex-2-enyl]-2-(2,4-dihydroxy-phenyl)-5,7-dihydroxy-3-(3-methyl-but-2-enyl)-chromen-4-one], the MIC in assay [1] (setting [5]) worked out at 10 µg/mL (≈ 13.1 µM); in assay [2] (setting [6]), 10 µg/mL (≈ 13.1 µM); in assay [3] (setting [7]), 0.3 µg/mL (≈ 0.394 µM); in assay [4] (setting [7]), 0.3 µg/mL (≈ 0.394 µM).

On to `CC(C)=CCc1c(-c2ccc(O)cc2O)oc2c3c(cc(O)c2c1=O)OC(C)(C)C=C3` [P3-3, 2-(2,4-dihydroxy-phenyl)-5-hydroxy-8,8-dimethyl-3-(3-methyl-but-2-enyl)-8H-pyrano[2,3-f]chromen-4-one], for which the MIC in assay [1] (setting [5]) came to 100 µg/mL (≈ 238 µM); in assay [2] (setting [6]) it was 30 µg/mL (≈ 71.4 µM); in assay [3] (setting [7]) it was 10 µg/mL (≈ 23.8 µM); in assay [4] (setting [7]) it was 100 µg/mL (≈ 238 µM).

In the case of `CC(C)=CCC/C(C)=C/Cc1c(O)ccc2cc(-c3cc(O)cc(O)c3CC=C(C)C)oc12` [P3-4], the MIC in assay [1] (ATCC6301, 20 h) is 30 µg/mL (≈ 67.2 µM); in assay [2] (20 h), 10 µg/mL (≈ 22.4 µM); in assay [3] (20 h) it was 3 µg/mL (≈ 6.72 µM); in assay [4] (20 h), 100 µg/mL (≈ 224 µM).

For the compound Gentamicin [reference compound], the “MIC SP” value in assay [1] (Tryptic Soy Broth with 7% fetal bovine serum, 37° C., 20 hours, 1% DMSO) was 100 µg/mL. Besides, the “MIC SP (EM & AM Res.)” value in assay [2] (setting [6]) is 100 µg/mL. Besides, the “MIC SA (Smith)” value in assay [3] (setting [7]) came out at 0.1 µg/mL. Also, the “MIC MRSA” value in assay [4] (setting [7]) is 1 µg/mL. The “MIC on MRSA relative to MIC on SA (Smith)” value in assay [4] (ratio MRSA / SA (Smith)) is 10 times.
